Measured values reported in the NIST ThermoML archive (doi:10.1016/j.fluid.2006.02.023).
± gives the expanded uncertainty stated by the source.

Details: 303.15 K; 101.33 kPa; Liquid

mass density	speed of sound	viscosity	SMILES
1051.8 ± 1.2 kg/m3	1288.5 ± 2.6 m/s	0.5487 ± 0.03 mPa·s	C1COCO1 [1,3-dioxolane]
784.4 ± 0.9 kg/m3	1144.3 ± 2.4 m/s	0.9675 ± 0.048 mPa·s	CCO [ethanol]
795.8 ± 0.9 kg/m3	1182.6 ± 2.5 m/s	1.663 ± 0.078 mPa·s	CCCO [propan-1-ol]
802.1 ± 0.9 kg/m3	1196.6 ± 2.5 m/s	2.54 ± 0.11 mPa·s	CCCCO [butan-1-ol]
775.1 ± 0.9 kg/m3	1078.8 ± 2.3 m/s	3.099 ± 0.14 mPa·s	CC(C)(C)O [2-methylpropan-2-ol]
799.2 ± 0.9 kg/m3	1168.9 ± 2.4 m/s	2.339 ± 0.11 mPa·s	CCC(C)O (centres undefined) [butan-2-ol]
777.3 ± 0.9 kg/m3	1126.6 ± 2.4 m/s	1.614 ± 0.076 mPa·s	CC(C)O [propan-2-ol]
782.4 ± 0.9 kg/m3	1088.5 ± 2.3 m/s	0.5041 ± 0.028 mPa·s	CO [methanol]
–	1505.2 ± 3 m/s	0.7975 ± 0.041 mPa·s	O [water]
803.2 ± 0.9 kg/m3	1197 ± 2.5 m/s	3.111 ± 0.14 mPa·s	CC(C)CCO [3-methylbutan-1-ol]
